From paper PMC9516332 (Frontiers in Oncology, 2022)
pIC50: −log10 of the molar value. Read-outs that look alike come from different tables or passages of the source.

Columns and labels:
134 cancer cell lines = test: Cell viability assay (ATPlite, 72 hours), IC50 on cancer cell line panel
AP-1060 (ETV6-NTRK3) = test: Cell viability assay; details: read-out: IC50 in cell proliferation assay
[1] = biological target: panel of 255 wild-type kinases (Homo sapiens, UniProt P29317); test: Kinase panel profiling at 1 µmol/L (MSA or IMAP), percentage inhibition; assay type: biochemical; details: kinase EPHA2; 1 µmol/L single concentration; read-out: %-inhibition at 1 µmol/L, EPHA2
[2] = biological target: panel of 255 wild-type kinases (Homo sapiens, UniProt Q9Y6M4); test: as above; assay type: biochemical; details: kinase CK1γ3; 1 µmol/L single concentration; read-out: %-inhibition at 1 µmol/L, CK1γ3

## COc1cc2ncnc(Nc3ccc(F)c(Cl)c3)c2cc1NC(=O)/C=C/CN1CCCCC1 [dacomitinib]
134 cancer cell lines; Homo sapiens, MeWo, read-out: IC50 in cell proliferation assay, MeWo cell line
  pIC50: 5.41
134 cancer cell lines; Homo sapiens, NCCIT, read-out: IC50 in cell proliferation assay, NCC-IT cell line
  pIC50: 5.35
134 cancer cell lines; Homo sapiens, NCI-H82, read-out: IC50 in cell proliferation assay, cell line NCI-H82
  pIC50: 5.41
134 cancer cell lines; Homo sapiens, NCI-H460, read-out: IC50 in cell proliferation assay, NCI-H460 cell line
  pIC50: 5.33
134 cancer cell lines; Homo sapiens, NCI-H661, read-out: IC50 in cell proliferation assay, NCI-H661 cell line
  pIC50: 5.43
134 cancer cell lines; Homo sapiens, NCI-H716, read-out: IC50 in cell proliferation assay, cell line NCI-H716 (FGFR2-COL14A1)
  pIC50: 5.31
134 cancer cell lines; Homo sapiens, NCI-H1650, read-out: IC50 in cell proliferation assay, NCI-H1650 cell line (EGFR exon19del)
  pIC50: 8.22
134 cancer cell lines; Homo sapiens, NCI-H1975, read-out: IC50 in cell proliferation assay, NCI-H1975 cell line (EGFR p.L858R + p.T790M)
  pIC50: 6.82
134 cancer cell lines; Homo sapiens, NCI-H2228, read-out: IC50 in cell proliferation assay, NCI-H2228 cell line (EML4-ALK)
  pIC50: 5.31
134 cancer cell lines; Homo sapiens, OVCAR-3, read-out: IC50 in cell proliferation assay, cell line OVCAR-3
  pIC50: 7.64
134 cancer cell lines; Homo sapiens, PFSK-1, read-out: IC50 in cell proliferation assay, cell line PFSK-1
  pIC50: 5.35
134 cancer cell lines; Homo sapiens, RL95-2, read-out: IC50 in cell proliferation assay, cell line RL95-2 (EGFR p.A289V)
  pIC50: 8.10
134 cancer cell lines; Homo sapiens, RPMI-7951, read-out: IC50 in cell proliferation assay, cell line RPMI-7951 (BRAF p.V600E)
  pIC50: 5.40
134 cancer cell lines; Homo sapiens, RS4-11, read-out: IC50 in cell proliferation assay, cell line RS4;11
  pIC50: 5.47
134 cancer cell lines; Homo sapiens, Rec1, read-out: IC50 in cell proliferation assay, cell line REC-1
  pIC50: 6.07
134 cancer cell lines; Homo sapiens, SHP77, read-out: IC50 in cell proliferation assay, cell line SHP-77
  pIC50: 5.29
134 cancer cell lines; Homo sapiens, SK-BR-3, read-out: IC50 in cell proliferation assay, cell line SK-BR-3 (ERBB2 amplification)
  pIC50: 7.57
134 cancer cell lines; Homo sapiens, SK-N-AS, read-out: IC50 in cell proliferation assay, cell line SK-N-AS
  pIC50: 5.51
134 cancer cell lines; Homo sapiens, SK-N-FI, read-out: IC50 in cell proliferation assay, cell line SK-N-FI
  pIC50: 5.47
134 cancer cell lines; Homo sapiens, SK-N-MC, read-out: IC50 in cell proliferation assay, cell line SK-N-MC
  pIC50: 5.53
134 cancer cell lines; Homo sapiens, SK-N-SH, read-out: IC50 in cell proliferation assay, cell line SK-N-SH (ALK p.F1174L)
  pIC50: 5.61
134 cancer cell lines; Homo sapiens, SNU-5, read-out: IC50 in cell proliferation assay, cell line SNU-5 (MET amplification)
  pIC50: 5.47
134 cancer cell lines; Homo sapiens, SNU-16, read-out: IC50 in cell proliferation assay, cell line SNU-16 (FGFR2 amplification)
  pIC50: 5.41
134 cancer cell lines; Homo sapiens, SNU-C2B, read-out: IC50 in cell proliferation assay, cell line SNU-C2B (EGFR p.R165Q)
  pIC50: 5.25
134 cancer cell lines; Homo sapiens, SU-DHL-1, read-out: IC50 in cell proliferation assay, cell line SU-DHL-1 (NPM1-ALK)
  pIC50: 5.45
134 cancer cell lines; Homo sapiens, SU-DHL-6, read-out: IC50 in cell proliferation assay, cell line SU-DHL-6
  pIC50: 5.59
134 cancer cell lines; Homo sapiens, SUP-T1, read-out: IC50 in cell proliferation assay, cell line SUP-T1
  pIC50: 5.34
134 cancer cell lines; Homo sapiens, SW48, read-out: IC50 in cell proliferation assay, cell line SW48 (EGFR p.G719S)
  pIC50: 9.20
134 cancer cell lines; Homo sapiens, SW480, read-out: IC50 in cell proliferation assay, cell line SW480
  pIC50: 5.32
134 cancer cell lines; Homo sapiens, SW626, read-out: IC50 in cell proliferation assay, cell line SW626
  pIC50: 5.28
134 cancer cell lines; Homo sapiens, SW780, read-out: IC50 in cell proliferation assay, cell line SW780 (FGFR3-BAIAP2L1)
  pIC50: 5.34
134 cancer cell lines; Homo sapiens, SW837, read-out: IC50 in cell proliferation assay, cell line SW837
  pIC50: 5.19
134 cancer cell lines; Homo sapiens, SW872, read-out: IC50 in cell proliferation assay, cell line SW872 (BRAF p.V600E)
  pIC50: 5.30
134 cancer cell lines; Homo sapiens, SW900, read-out: IC50 in cell proliferation assay, cell line SW900
  pIC50: 5.32
134 cancer cell lines; Homo sapiens, SW948, read-out: IC50 in cell proliferation assay, cell line SW948
  pIC50: 5.32
134 cancer cell lines; Homo sapiens, SW982, read-out: IC50 in cell proliferation assay, cell line SW982 (BRAF p.V600E)
  pIC50: 5.40
134 cancer cell lines; Homo sapiens, SW-620, read-out: IC50 in cell proliferation assay, cell line SW620
  pIC50: 5.29
134 cancer cell lines; Homo sapiens, T98G, read-out: IC50 in cell proliferation assay, cell line T98G
  pIC50: 5.34
134 cancer cell lines; Homo sapiens, TCC-SUP, read-out: IC50 in cell proliferation assay, cell line TCCSUP
  pIC50: 5.47
134 cancer cell lines; Homo sapiens, THP-1, read-out: IC50 in cell proliferation assay, cell line THP-1
  pIC50: 5.41
134 cancer cell lines; Homo sapiens, U2OS, read-out: IC50 in cell proliferation assay, cell line U2OS
  pIC50: 5.48
134 cancer cell lines; Homo sapiens, U-87 MG, read-out: IC50 in cell proliferation assay, cell line U-87MG ATCC
  pIC50: 5.36
134 cancer cell lines; Homo sapiens, U-118-MG, read-out: IC50 in cell proliferation assay, cell line U-118MG
  pIC50: 5.44
134 cancer cell lines; Homo sapiens, UMUC3, read-out: IC50 in cell proliferation assay, cell line UM-UC-3
  pIC50: 5.50
134 cancer cell lines; Hs766T, read-out: IC50 in cell proliferation assay, Hs 766T cell line
  pIC50: 5.30
134 cancer cell lines; L-82, read-out: IC50 in cell proliferation assay, L-82 cell line (NPM1-ALK)
  pIC50: 5.78
134 cancer cell lines; Rh30, read-out: IC50 in cell proliferation assay, cell line Rh30
  pIC50: 5.41
134 cancer cell lines; read-out: IC50 in cell proliferation assay, 11-18 cell line (EGFR p.L858R)
  pIC50: 8.70
134 cancer cell lines; read-out: IC50 in cell proliferation assay, Hs 852.T cell line
  pIC50: 5.43
134 cancer cell lines; read-out: IC50 in cell proliferation assay, JAR cell line
  pIC50: 5.52
134 cancer cell lines; read-out: IC50 in cell proliferation assay, cell line 5637
  pIC50: 7.51
134 cancer cell lines; read-out: IC50 in cell proliferation assay, cell line A-388
  pIC50: 7.72
134 cancer cell lines; read-out: IC50 in cell proliferation assay, cell line DB
  pIC50: 5.44
134 cancer cell lines; read-out: IC50 in cell proliferation assay, cell line DEL (NPM1-ALK)
  pIC50: 5.69
134 cancer cell lines; read-out: IC50 in cell proliferation assay, cell line ES-2 (BRAF p.V600E)
  pIC50: 5.52
134 cancer cell lines; read-out: IC50 in cell proliferation assay, cell line PA-1
  pIC50: 5.57
134 cancer cell lines; read-out: IC50 in cell proliferation assay, cell line PC-3
  pIC50: 5.28
134 cancer cell lines; read-out: IC50 in cell proliferation assay, cell line RD
  pIC50: 5.60
134 cancer cell lines; read-out: IC50 in cell proliferation assay, cell line RKO (BRAF p.V600E)
  pIC50: 5.45
134 cancer cell lines; read-out: IC50 in cell proliferation assay, cell line RL
  pIC50: 5.38
134 cancer cell lines; read-out: IC50 in cell proliferation assay, cell line RT-4 (FGFR3-TACC3)
  pIC50: 7.85
134 cancer cell lines; read-out: IC50 in cell proliferation assay, cell line SR (NPM1-ALK)
  pIC50: 5.45
134 cancer cell lines; read-out: IC50 in cell proliferation assay, cell line T24
  pIC50: 5.52
134 cancer cell lines; read-out: IC50 in cell proliferation assay, cell line TT (RET p.C634W)
  pIC50: 5.32
134 cancer cell lines; read-out: IC50 in cell proliferation assay, cell line VA-ES-BJ
  pIC50: 5.45
AP-1060 (ETV6-NTRK3)
  pIC50: 5.46
[1]
  inhibition at 1 µM: 14%
[2]
  inhibition at 1 µM: -23%
